The target of assay [1] is Adenosine Receptor A2A (ADORA2A) (Homo sapiens, UniProt P29274). Kind of assay: Calcium flux assay, ADORA2A. The class given is cell-based.
The target in assay [2] is T1, Dopamine transporter (DAT) (Homo sapiens, UniProt Q01959).
T1 construct: expressed in transfected cells
Nature of the assay: Monoamine transporter uptake assay (fluorescent substrate), DAT. The class given is cell-based.

In assay [3] the target is T2, Rho Associated Coiled-Coil Containing Protein Kinase 1 (ROCK1) (Homo sapiens, UniProt Q13464).
T2 construct: made in house; host or cells: E. coli BL21-derived host (T7 phage) or HEK-293
Kind of assay: KINOMEscan binding assay, ROCK1.

For assay [4], the target named is Cannabinoid Receptor 1 (CNR1) (Homo sapiens, UniProt P21554). Nature of the assay: cAMP assay, CNR1. Type of assay: cell-based.
The target in assay [5] is Muscarinic acetylcholine Receptor M3 (CHRM3) (Homo sapiens, UniProt P20309). Nature of the assay: cell-based.
For the next assay, the target named is T3, human 5-HT2A (Homo sapiens, UniProt P28223).
T3 construct: expressed in transfected cells; host or cells: HEK-293
Nature of the assay: 5-HT2A agonist effect measured by HTRF as changes in IP1, HEK-293 cells. As to conditions: 3.0E-05 M; control 10 μM serotonin; 30 min at 37° C.; duplicate averaged. Type of assay: cell-based. The procedure: Potential agonist effects of BK-5F-NM-AMT, BK-5F-NM-AMT, and BK-5F-NM-AMT at 5-HT2A receptors was measured by HTRF as changes in IPl. The effects were measured using human 5-HT2A expressed in HEK-293 cells, based on methods reported in Porter et al. British Journal of Pharmacology, 1999. 128(1), 13-20. Incubation was 30 min at 37° C. 10 μM serotonin was used as a positive control. The tryptamine derivatives were each tested at six concentrations from 3.0E-10 to 3.0E-05 M using log steps. All assays were performed in duplicate with results averaged.

For assay [6], the target named is NAV1.5 (tetrodotoxin-resistant voltage-gated sodium channel) (Homo sapiens, UniProt Q14524). Nature of the assay: cell-based.
Assay [7] deals with T4, Muscarinic acetylcholine Receptor M1 (CHRM1) (Homo sapiens, UniProt P11229).
T4 sequence (P11229 1-460): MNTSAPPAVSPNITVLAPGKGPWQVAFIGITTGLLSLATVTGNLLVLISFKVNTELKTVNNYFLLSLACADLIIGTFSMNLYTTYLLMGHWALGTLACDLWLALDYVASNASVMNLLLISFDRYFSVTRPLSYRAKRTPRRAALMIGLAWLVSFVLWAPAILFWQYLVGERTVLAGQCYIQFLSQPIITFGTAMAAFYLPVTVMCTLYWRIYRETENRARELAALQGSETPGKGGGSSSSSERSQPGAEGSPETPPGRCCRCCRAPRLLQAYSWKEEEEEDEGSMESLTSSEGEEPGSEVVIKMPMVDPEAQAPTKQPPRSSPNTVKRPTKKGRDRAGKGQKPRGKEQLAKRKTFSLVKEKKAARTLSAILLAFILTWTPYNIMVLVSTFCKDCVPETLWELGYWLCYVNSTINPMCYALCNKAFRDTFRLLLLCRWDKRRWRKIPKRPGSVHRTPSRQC
Nature of the assay: cell-based.

The target in assay [8] is T5, 5-Hydroxytryptamine (Serotonin) Receptor 3A (5-HT3A) (Homo sapiens, UniProt P46098).
T5 sequence (P46098 24-478): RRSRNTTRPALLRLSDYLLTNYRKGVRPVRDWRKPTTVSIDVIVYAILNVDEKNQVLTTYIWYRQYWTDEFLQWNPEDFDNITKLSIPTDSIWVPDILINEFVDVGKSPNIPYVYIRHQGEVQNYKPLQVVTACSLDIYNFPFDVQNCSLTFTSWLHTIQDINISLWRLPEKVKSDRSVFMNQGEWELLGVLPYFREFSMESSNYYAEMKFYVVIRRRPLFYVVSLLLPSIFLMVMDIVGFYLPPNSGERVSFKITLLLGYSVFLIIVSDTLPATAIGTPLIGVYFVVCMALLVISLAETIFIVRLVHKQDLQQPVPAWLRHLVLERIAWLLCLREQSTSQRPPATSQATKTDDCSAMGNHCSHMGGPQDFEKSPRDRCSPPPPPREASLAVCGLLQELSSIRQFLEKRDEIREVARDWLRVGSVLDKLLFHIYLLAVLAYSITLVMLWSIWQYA
Nature of the assay: Ion channel assay, 5-HT3A. Type of assay: cell-based.

For another assay, the target named is T6, KvLQT1/minK (Homo sapiens, UniProt P15382+P51787).
T6 construct: expressed in transfected cells
Nature of the assay: Ion channel assay, KvLQT1/minK. Type of assay: cell-based.

The target of assay [9] is Adrenergic Receptor β1 (ADRB1) (Homo sapiens, UniProt P08588). Kind of assay: cAMP assay, ADRB1. The class given is cell-based.
Assay [10] addresses T7, Cholecystokinin Receptor A (CCKAR) (Homo sapiens, UniProt P32238).
T7 sequence (P32238 1-428): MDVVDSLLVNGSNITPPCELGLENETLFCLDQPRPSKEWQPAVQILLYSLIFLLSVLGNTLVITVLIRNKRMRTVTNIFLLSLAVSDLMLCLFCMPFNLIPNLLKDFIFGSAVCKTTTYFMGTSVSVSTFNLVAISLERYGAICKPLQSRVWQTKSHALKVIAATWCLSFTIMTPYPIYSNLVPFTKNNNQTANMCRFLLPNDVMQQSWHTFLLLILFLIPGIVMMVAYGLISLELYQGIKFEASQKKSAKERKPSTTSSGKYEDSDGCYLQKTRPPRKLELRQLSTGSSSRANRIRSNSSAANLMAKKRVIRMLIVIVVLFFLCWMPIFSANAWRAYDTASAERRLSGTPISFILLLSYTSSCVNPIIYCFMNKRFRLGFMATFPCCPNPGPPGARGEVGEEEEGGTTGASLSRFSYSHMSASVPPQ
Kind of assay: Calcium flux assay, CCKAR. The class given is cell-based.

For assay [11], the target named is Histamine Receptor H2 (HRH2) (Homo sapiens, UniProt P25021). Kind of assay: cAMP assay, HRH2. The class given is cell-based.
The target of assay [12] is T8, Serotonin transporter (SERT) (Homo sapiens, UniProt P31645).
T8 construct: expressed in transfected cells
Nature of the assay: cell-based.

pEC50, pIC50: −log10 of the molar value. Structures can show the parent of a compound that is named as a salt.

T1 sequence (Q01959 whole entry): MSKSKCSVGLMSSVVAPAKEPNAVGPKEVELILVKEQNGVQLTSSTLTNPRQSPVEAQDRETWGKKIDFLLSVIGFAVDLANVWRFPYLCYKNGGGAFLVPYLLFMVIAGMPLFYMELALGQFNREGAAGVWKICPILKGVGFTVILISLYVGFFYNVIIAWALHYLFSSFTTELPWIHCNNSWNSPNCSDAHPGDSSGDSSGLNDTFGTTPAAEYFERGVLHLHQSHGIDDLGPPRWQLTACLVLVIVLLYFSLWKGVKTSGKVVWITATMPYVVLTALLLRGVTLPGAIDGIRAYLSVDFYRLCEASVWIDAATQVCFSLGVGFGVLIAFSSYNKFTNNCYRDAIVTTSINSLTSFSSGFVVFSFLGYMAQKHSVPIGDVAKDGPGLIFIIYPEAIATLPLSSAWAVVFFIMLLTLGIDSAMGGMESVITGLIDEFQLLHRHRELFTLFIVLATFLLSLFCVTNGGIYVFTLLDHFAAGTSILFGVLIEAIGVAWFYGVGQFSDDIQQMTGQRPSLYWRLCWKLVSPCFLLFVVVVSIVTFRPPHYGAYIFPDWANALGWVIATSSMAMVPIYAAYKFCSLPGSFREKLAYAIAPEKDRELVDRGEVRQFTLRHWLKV
Muscarinic acetylcholine Receptor M3 (CHRM3), sequence (P20309 whole entry): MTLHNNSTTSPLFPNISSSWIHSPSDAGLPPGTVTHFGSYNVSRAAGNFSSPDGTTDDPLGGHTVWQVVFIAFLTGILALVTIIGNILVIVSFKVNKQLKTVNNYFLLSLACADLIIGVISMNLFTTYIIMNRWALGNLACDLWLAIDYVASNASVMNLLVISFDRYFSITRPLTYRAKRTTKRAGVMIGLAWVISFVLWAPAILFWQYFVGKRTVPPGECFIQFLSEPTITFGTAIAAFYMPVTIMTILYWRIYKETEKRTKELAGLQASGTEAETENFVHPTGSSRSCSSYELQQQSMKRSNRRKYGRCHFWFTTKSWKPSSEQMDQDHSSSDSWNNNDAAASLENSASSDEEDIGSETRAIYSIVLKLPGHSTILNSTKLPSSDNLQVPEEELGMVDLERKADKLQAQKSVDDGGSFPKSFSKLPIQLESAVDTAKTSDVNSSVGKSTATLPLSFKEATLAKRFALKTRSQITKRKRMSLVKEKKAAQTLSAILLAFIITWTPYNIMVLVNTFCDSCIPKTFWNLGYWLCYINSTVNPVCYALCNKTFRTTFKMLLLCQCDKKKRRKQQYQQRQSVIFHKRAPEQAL
Adrenergic Receptor β1 (ADRB1), sequence (P08588 whole entry): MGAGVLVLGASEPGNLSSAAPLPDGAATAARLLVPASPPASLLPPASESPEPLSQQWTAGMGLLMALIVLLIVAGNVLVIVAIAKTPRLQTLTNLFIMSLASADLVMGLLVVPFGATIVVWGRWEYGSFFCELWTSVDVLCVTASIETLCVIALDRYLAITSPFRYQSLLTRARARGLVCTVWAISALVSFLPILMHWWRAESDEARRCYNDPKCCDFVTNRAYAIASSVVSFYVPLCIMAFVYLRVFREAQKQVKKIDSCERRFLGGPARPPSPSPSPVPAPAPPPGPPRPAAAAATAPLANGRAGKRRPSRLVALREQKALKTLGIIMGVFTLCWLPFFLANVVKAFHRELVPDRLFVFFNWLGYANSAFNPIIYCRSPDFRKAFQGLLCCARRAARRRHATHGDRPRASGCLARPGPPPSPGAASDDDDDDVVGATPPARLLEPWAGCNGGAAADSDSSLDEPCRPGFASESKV
Adenosine Receptor A2A (ADORA2A), sequence (P29274 whole entry): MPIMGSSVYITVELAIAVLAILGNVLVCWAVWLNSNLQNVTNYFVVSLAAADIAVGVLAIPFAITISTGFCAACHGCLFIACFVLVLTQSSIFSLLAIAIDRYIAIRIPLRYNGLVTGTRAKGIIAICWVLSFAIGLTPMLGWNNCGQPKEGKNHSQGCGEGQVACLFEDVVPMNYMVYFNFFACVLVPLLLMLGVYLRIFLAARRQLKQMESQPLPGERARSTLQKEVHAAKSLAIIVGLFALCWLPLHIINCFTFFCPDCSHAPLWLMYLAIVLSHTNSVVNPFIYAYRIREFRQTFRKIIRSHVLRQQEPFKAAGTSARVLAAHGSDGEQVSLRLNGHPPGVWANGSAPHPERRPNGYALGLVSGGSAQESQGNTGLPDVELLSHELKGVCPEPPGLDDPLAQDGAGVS
Cannabinoid Receptor 1 (CNR1), sequence (P21554 whole entry): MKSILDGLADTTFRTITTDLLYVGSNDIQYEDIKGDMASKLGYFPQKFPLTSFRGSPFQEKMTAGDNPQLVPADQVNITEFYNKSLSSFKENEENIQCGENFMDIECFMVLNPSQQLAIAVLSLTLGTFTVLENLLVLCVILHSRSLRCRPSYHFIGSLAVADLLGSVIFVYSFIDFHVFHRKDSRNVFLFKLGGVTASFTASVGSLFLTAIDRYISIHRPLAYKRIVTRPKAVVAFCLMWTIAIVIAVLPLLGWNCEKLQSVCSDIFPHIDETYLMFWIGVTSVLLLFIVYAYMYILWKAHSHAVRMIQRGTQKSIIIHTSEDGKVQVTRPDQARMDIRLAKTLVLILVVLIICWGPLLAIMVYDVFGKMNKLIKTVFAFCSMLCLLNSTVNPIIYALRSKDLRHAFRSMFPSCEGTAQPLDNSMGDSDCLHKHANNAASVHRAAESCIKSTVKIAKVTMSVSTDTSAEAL
T8 sequence (P31645 whole entry): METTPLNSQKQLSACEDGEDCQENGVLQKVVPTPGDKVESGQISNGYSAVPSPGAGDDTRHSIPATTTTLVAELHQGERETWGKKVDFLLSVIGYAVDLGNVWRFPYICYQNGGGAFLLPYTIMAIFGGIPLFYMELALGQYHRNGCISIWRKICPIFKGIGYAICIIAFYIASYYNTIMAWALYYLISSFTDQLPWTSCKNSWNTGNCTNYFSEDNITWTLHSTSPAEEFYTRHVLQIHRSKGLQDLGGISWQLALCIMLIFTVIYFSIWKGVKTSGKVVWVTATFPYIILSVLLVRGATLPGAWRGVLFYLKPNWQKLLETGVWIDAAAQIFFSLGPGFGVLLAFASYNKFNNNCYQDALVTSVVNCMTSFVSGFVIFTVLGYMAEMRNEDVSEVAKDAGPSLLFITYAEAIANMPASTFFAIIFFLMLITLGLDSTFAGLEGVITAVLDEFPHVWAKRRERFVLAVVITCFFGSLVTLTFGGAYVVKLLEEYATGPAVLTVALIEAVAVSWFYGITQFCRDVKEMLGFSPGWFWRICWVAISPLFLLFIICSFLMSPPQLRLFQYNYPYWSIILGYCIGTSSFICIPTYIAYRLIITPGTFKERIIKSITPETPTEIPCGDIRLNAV
T6 sequence (P51787 whole entry): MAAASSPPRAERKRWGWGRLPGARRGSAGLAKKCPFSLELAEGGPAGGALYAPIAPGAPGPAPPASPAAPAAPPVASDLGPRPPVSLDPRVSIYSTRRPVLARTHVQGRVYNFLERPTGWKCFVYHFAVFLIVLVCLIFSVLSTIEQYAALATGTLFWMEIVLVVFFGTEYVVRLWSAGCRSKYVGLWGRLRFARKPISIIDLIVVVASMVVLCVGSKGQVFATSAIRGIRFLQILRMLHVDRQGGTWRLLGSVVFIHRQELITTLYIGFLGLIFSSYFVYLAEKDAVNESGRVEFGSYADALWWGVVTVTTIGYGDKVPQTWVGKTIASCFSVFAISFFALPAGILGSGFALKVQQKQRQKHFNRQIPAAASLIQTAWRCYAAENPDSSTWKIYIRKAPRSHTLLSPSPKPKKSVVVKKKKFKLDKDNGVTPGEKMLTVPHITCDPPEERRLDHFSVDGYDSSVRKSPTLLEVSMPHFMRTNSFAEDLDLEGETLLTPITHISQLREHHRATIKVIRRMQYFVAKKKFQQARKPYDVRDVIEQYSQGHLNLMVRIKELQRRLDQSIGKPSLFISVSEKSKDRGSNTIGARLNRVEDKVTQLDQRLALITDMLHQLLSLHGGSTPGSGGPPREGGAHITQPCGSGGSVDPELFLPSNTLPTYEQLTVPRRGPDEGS
Histamine Receptor H2 (HRH2), sequence (P25021 whole entry): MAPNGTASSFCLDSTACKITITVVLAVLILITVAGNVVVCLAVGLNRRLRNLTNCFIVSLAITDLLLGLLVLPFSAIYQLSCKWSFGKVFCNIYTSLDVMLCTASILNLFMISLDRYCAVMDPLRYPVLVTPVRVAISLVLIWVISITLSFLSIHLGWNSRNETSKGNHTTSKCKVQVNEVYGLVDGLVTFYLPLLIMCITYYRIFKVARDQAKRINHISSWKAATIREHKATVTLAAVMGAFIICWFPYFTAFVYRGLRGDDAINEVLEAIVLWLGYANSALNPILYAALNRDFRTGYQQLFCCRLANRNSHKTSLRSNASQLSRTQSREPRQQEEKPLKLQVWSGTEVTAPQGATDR

`CNC(C)C(=O)c1c[nH]c2ccc(Cl)cc12` (stereo not drawn) [BK-5Cl-NM-AMT, 1-(5-chloro-1H-indol-3-yl)-2-(methylamino) propan-1-one hydrochloride]: the pEC50 (in [1]; in [4]; in [5]; in assay [7]; in assay [8]; at KvLQT1/minK) was < 5.00 in each case. Besides, the pEC50 in assay [9], in [10] and in assay [11] was < 5.00 each time. Besides, the pIC50 is < 5.00 in [1]; 5.22 in [2]; < 5.00 in assay [3]; < 5.00 in assay [4]; < 5.00 in [5]; < 5.00 in assay [6]. Moreover, the pIC50 in assay [7] was < 5.00; in assay [8], 6.02; at KvLQT1/minK it was < 5.00; in [9], < 5.00; in [10], < 5.00; in assay [11], < 5.00. Further, the negative-log IC50 (pIC50) in assay [12] is < 5.00. On human 5-HT2A, the “Signal changes at the highest tested concentration” value (shortened to “Signal changes”) is 1.3 % of control.

Turning to `CNC(C)C(=O)c1c[nH]c2ccc(Br)cc12` (stereo not drawn) [BK-5Br-NM-AMT, 1-(5-bromo-1H-indol-3-yl)-2-(methylamino) propan-1-one hydrochloride], the pEC50 (in assay [1]; in assay [4]; in [5]; in [7]; in assay [8]; on KvLQT1/minK) was < 5.00 each time. The pEC50 in assay [9], in assay [10] and in assay [11] was < 5.00 throughout. Besides, the pIC50 in [1] is < 5.00; in [2], 5.37; in assay [3] it was < 5.00; in [4] it was < 5.00; in assay [5], < 5.00; in assay [6], < 5.00. For the same compound, the pIC50 in assay [7] was < 5.00; in [8], 6.17; on KvLQT1/minK it was < 5.00; in assay [9], < 5.00; in assay [10], < 5.00; in assay [11], < 5.00. The pIC50 in [12] was < 5.00. Further, the “Signal changes” value at human 5-HT2A is recorded as −1.1 % of control.

For `CNC(C)C(=O)c1c[nH]c2ccc(F)cc12` (stereo not drawn) [BK-5F-NM-AMT, 1-(5-Fluoro-1H-indol-3-yl)-2-(methylamino) propan-1-one hydrochloride], the pEC50 (in assay [1]; in assay [4]; in assay [5]; in [7]; in [8]; on KvLQT1/minK) was < 5.00 each time. Besides, the pEC50 in assay [9], in [10] and in assay [11] was < 5.00 each time. The pIC50 in [1], in assay [2], in assay [3], in assay [4], in assay [5] and in assay [6] was < 5.00 each time. Also, the pIC50 in assay [7] is < 5.00; in [8] it was < 4.52; at KvLQT1/minK, < 5.00; in [9], < 5.00; in [10], < 5.00; in assay [11], < 5.00. In addition, the negative-log IC50 (pIC50) in assay [12] is < 5.00. Also, the “Signal changes” value at human 5-HT2A was −0.8 % of control.

Values taken from patent publication US20230257347A1 (priority 2020, published 2023).
